Ends that are not written are not given here.
Legend:
[1] = tested on: serum cytokines; assay: Plasma cytokine levels after LPS, Luminex Cytokine Arrays; type: in vivo, mouse; settings: SCID mice, LPS 0.5 mg/kg i.p., 4 hours
Protocol: 6-8 weeks old SCID mice were given an intraperitoneal injection of LPS (0.5 mg/kg) 5 minutes prior to intravenous injection of LSALT peptide or a control peptide. 4 hours following injection of LPS, blood was collected by cardiac puncture and changes in plasma cytokine levels were assessed using Luminex Cytokine Arrays. Bar graphs show the levels of different inflammatory mediators released in the plasma in the presence or absence of LSALT peptide and control peptide.
6-8 weeks old SCID mice were given an intraperitoneal injection of LPS (0.5 mg/kg) 5 minutes prior to intravenous injection of LSALT peptide or a control peptide. 4 hours following injection of LPS, blood was collected by cardiac puncture and changes in plasma cytokine levels were assessed using Luminex Cytokine Arrays. Bar graphs show the level of the anti-inflammatory cytokine IL-10 released in the plasma in LSALT peptide or control peptide in two independent experiments.

[2] = target: T1, human membrane dipeptidase (DPEP-1) (Homo sapiens, UniProt P16444); assay: Membrane dipeptidase enzyme activity assay (Gly-D-Phe, fluorometric); type: biochemical; settings: lysates of transfected Cos1 cells, substrate Gly-D-Phe
T1 construct: expressed in transfected cells; host or cells: Cos-1
T1 sequence (P16444 17-385): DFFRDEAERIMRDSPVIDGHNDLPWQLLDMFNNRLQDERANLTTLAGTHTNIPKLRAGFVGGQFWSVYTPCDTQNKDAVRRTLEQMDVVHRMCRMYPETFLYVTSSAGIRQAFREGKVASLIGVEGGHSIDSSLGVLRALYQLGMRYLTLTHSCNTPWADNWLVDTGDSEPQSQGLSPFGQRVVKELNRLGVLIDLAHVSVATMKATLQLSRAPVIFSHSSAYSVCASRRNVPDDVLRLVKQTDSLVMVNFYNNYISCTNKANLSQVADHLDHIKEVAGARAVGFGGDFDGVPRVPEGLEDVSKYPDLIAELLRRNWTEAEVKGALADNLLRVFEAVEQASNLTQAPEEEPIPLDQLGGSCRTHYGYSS
Protocol: 24 hours after transfection, DPEP-1 expressing cells weer reseeded on 24 well collagen coated (neutralized) plates and allowed to grow for 24 hours at 37° C. […] Cells were blocked with FBS/NBSA/Tween in PBS for 30 minutes on ice. […] After incubation, cells were washed with PBS and stained with DAPI for 4 minutes on ice. Cells were again washed with PBS, fixed using 4% paraformaldehyde and immunofluoresence microscopy was performed to assess binding. Proteins from human DPEP-1 transfected cells were isolated after 48 hours using octyl-glucoside/RIPA in the absence of protease inhibitors. […] Proteins from transfected cells were isolated after 48 hours using octyl-glucoside/RIPA lysis buffer and western blot analysis was performed to assess DPEP-1 expression using DPEP-1 antibody (Sigma).
The fluorescence signal generated from the conversion of D-Phe to […] in the presence of D-aminoacidoxidase and peroxidase was measured using a fluorescence plate reader.
Proteins from DPEP-1 transfected cells were isolated after 48 hours using octyl-glucoside/RIPA lysis buffer and western blot analysis was performed to assess DPEP-1 expression using a DPEP-1 specific antibody (Proteintech) (FIG. 24B).

[3] = tested on: metastatic cancer cells; assay: Metastasis model in mice; type: in vivo; settings: peptide 1 mM
[4] = Circular dichroism spectroscopy of LSALT peptide and analogs; type: physicochemical; design: Inducible Helical Structure (50% TFE-benign): unit not given here
Protocol: The physical and chemical properties of protein therapeutics are critical factors that influence the ease of manufacturing, development and clinical use. The LSALT peptide was evaluated in terms of its solubility, aggregation state and stability using a variety of biophysical methods.
In circular dichroism spectroscopy the ellipticity value at 222 nm is a measure of a-helical content. 50% trifluoroethanol is a hydrophobic solvent and induces α-helical structure if the structure can be induced. All of the peptides tested can be induced to adopt α-helical structure. The peptides are random coils in benign conditions (non-denaturing). The buffer conditions were aqueous phosphate, pH 7.0.

[5] = target: T2, human DPEP2 (Homo sapiens, UniProt Q9H4A9); assay: Immunofluorescence binding to Cos-1 cells transfected with human DPEP2; settings: Alexa-488 conjugate
T2 construct: expressed in transfected cells; host or cells: Cos-1
Protocol: Cos-1 cells were transiently transfected with either 3 μg of human DPEP-1, DPEP2, or DPEP3 gene using Lipofectamine 2000 (Invitrogen) reagent in OptiMEM medium. 24 hours after transfection, DPEP-1, DPEP2, or DPEP3 expressing cells were re-seeded on collagen coated (neutralized) wells in 24 well plates and allowed to grow for 24 hours at 37° C. […] Cells were blocked with FBS/NBSA/Tween in PBS for 30 minutes on ice. Cells were then washed with PBS and incubated with LSALT or GFE-1, conjugated with Alexa-488 (green). After incubation, cells were washed with PBS and stained with DAPI for 5 minutes on ice. Cells were then washed with PBS and fixed using 4% paraformaldehyde and immunofluorescence microscopy was performed to assess binding. Representative photomicrographs are shown for each experimental condition (n=3) in FIG. 6A. Proteins from DPEP-1, DPEP2 and DPEP3 transfected cells were isolated after 48 hours using octyl-glucoside/RIPA lysis buffer and western blot analysis was performed to assess DPEP-1, DPEP2 and DPEP3 protein expression using specific antibodies; DPEP-1 antibody (Sigma), DPEP2 (Abcam) and DPEP3 (Santacruz). Blots were stripped and reprobed with an anti-β-actin.

T2 sequence (Q9H4A9 33-463): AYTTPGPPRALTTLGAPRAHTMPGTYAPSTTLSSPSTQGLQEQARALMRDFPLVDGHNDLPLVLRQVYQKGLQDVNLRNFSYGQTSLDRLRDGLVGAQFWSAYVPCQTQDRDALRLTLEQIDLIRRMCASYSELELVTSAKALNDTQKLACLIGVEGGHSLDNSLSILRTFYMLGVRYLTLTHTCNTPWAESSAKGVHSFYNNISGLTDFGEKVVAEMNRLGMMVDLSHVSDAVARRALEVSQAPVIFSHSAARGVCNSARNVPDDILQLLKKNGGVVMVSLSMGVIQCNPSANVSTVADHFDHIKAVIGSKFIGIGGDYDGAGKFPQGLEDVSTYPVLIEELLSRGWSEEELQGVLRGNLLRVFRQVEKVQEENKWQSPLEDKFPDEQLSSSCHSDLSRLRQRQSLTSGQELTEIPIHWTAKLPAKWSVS

H-LSALTPSPSWLKYKAL [LSALT]
levels of serum cytokines in response to LPS [1]: attenuates the levels of a number of different serum cytokines | plasma IL-10 in response to LPS [1]: increases the production of the anti-inflammatory mediator IL-10 | inhibition of human DPEP1 enzymatic activity [2]: do not inhibit membrane dipeptidase enzyme activity | tumor burden in livers (liver metastatic lesions) ([3]; animals injected with 4T1 murine breast cancer cells): reduces tumor burden in livers of animals injected with metastatic cancer cells | tumor burden in livers and lungs ([3]; animals injected with metastatic cancer cells): reduces tumor burden in livers and lungs | Inducible Helical Structure (50% TFE-benign) ([4]; 222 nm): 23,925 | [θ] (222 nm) 50% TFE ([4]; 222 nm, 50% TFE): −72298 | % Inducible Helical Structure (Inducible/50% TFE) ([4]; 222 nm, 50% TFE is considered 100% folded): 33.1% | [θ] (222 nm) Benign (No TFE) ([4]; 222 nm, benign buffer (100 mM KCl, 50 mM Na2HPO4/NaH2PO4, pH 7.0)): −48373 | secondary structure by CD ([4]; aqueous buffer / benign conditions, pH 7.0): minima at 222 nm characteristic of a α-helical conformation | binding to human DPEP2 transfected Cos-1 cells [5]: does not Bind

Source: patent US11286278B2, “DPEP-1 binding agents and methods of use” (Arch Biopartners, Inc., priority 2018, dated 2022)
